Assay results: the METLIN SMRT retention time set (Domingo-Almenara et al. 2019)

Experiment: gradient 5% acetonitrile 3 min, to 50% in 2 min, to 85% in 15 min, held 3 min, 100 µL/min
Conditions: column: Zorbax Extend-C18 2.1 x 50 mm; eluents: water / acetonitrile, 0.1% formic acid
Outline: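 Mixtures of ~100 pure standards were chromatographed on a Zorbax Extend-C18 column (2.1 × 50 mm, 1.8 μm) at 100 μL/min using water and acetonitrile, each with 0.1% formic acid. Detection used a quadrupole time-of-flight mass spectrometer in positive and negative ionization mode, and data collection spanned 3 months. Retention time was obtained from adduct peaks picked computationally and each checked manually.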

SMILES	RP-LC retention time [s]
CCn1cc(CC(=O)NCC2CCCCC2)c2cccnc21	783
O=C(Cn1c(=O)c2cccn2c2ccccc21)NCc1cccs1	763
O=C(CSCc1ccccc1)N1CCC(c2nnc(C(F)(F)F)o2)CC1	857
C[C@@H]1CN(C(=O)NC2CCCC2)C[C@H]1c1nc(-c2ccncc2)no1	671
Cc1nc(Nc2ccc(F)cn2)sc1C(=O)NCCCc1ccccc1	883
Cc1ccc(S(=O)(=O)N2C[C@@H](F)C[C@H]2C(=O)N2CCOCC2)c(C)c1	740
CC(C)CN1Cc2ccccc2-n2ccnc2C12CCN(C(=O)c1ccoc1)CC2	665
CC(=O)c1ccc(NS(=O)(=O)c2ccccc2[N+](=O)[O-])cc1	729
Cc1nc(-c2cccc(NC(=O)Cc3csc(Nc4ncccn4)n3)c2)cs1	731
CCC(=O)N1CC(n2cc(C(=O)NCC3CC3)nn2)C1	617
O=C(CCc1nnn2c1CN(C(=O)NC1CCCC1)CC2)N1CCOCC1	615
CCOc1cccc(-c2noc(-c3nnn4c3COC(c3ccc(F)cc3)C4)n2)c1 (stereo not drawn)	1190
Cc1ccc2c(C)nc(NC3=NCN(CC4CCCO4)CN3)nc2c1 (stereo not drawn)	660
CN(C)Cc1c(C(=O)NCCOc2ccc(C(=O)NO)cc2)oc2ccccc12	628
O=C(CC1CCN(S(=O)(=O)c2ccc(Cl)s2)CC1)N1CCN(c2ncccn2)CC1	872
O=C(CCCn1nc(-c2cccs2)ccc1=O)Nc1cccc2nsnc12	728
Cc1ccc(-n2cc(C(=O)O)nn2)c(F)c1	705
Cc1cc(C)cc(Nc2ncccc2S(N)(=O)=O)c1	898

SMILES	RP-LC retention time [s]
CCCS(=O)(=O)N1CCC2(CC1)c1[nH]c3ccccc3c1CCN2C	659
CN1C(=O)c2ccccc2Oc2ccc(C(=O)NCc3ccc(F)cc3)cc21	868
Cc1cccc(CN2CC(=O)N(c3cccc(Cl)c3)[C@@H]3CS(=O)(=O)C[C@@H]32)c1	892
CC(C)NC(=O)NCc1ccc2c(c1)N(C(=O)c1ccccc1)C(C)C2 (stereo not drawn)	778
CCOc1ccccc1NS(=O)(=O)c1cc(-c2cc(C(F)(F)F)on2)sc1C	1120
CN(CC1CCOC1)C(=O)Nc1ccc(Cl)cc1 (stereo not drawn)	696
O=C(Cc1nnc2cc(-c3nc(C4CC4)no3)ccn12)N1CCSCC1	698
O=C(O)C1=CCCN(CCON=C(c2ccccc2)c2ccccc2)C1	766
CC(C)CN1CCn2cc(C(=O)N3CCC(C)CC3)nc2C1	599
CN1C(=O)[C@H]2CN(Cc3cc(F)ccc3F)C[C@H]2C1=O	602
CCCn1c(=O)sc2cc(S(=O)(=O)N3CCC(C(=O)N(CC)CC)CC3)ccc21	881
COc1cccc(CNC(=O)CSc2nccnc2N2CCSCC2)c1OC	824
O=C(NCCN1CCN(S(=O)(=O)c2ccc(C(F)(F)F)cc2)CC1)c1ccsc1	610
CN(C)C[C@@H]1CN(Cc2cccnc2)C[C@H]1NC(=O)C1(c2ccccc2)CC1	557
CC(C)C(=O)NCc1csc(C2CCCN(C(=O)CC(C)(C)C)C2)n1 (stereo not drawn)	734
COc1ccc(C2OC(c3cc(OC)c(OC)c(OC)c3)=NN2C(C)=O)c(OC)c1 (stereo not drawn)	885
Cc1cc(OC(C)C(=O)N2CCC3(O)CCCCC3C2)c2c3c(c(=O)oc2c1)CCCC3 (stereo not drawn)	892
Cc1cccc(N2CCN(S(=O)(=O)c3cc(-c4cc(C(F)(F)F)on4)cs3)CC2)c1C	1420

Next, values leading:

RP-LC retention time [s]	SMILES
705	COc1nn(C)cc1C(=O)N1CCCC(C(=O)NCc2ccccc2OC(F)(F)F)C1 (stereo not drawn)
682	Cc1cc(OCC(=O)Nc2cccc(Br)c2)nc(N2CCCC2)n1
710	Cc1ccc(CNC(=O)Cn2cnc3nc(N4CCCC(C(=O)NC(C)C)C4)sc3c2=O)cc1 (stereo not drawn)
760	COC(=O)c1cc2c(=O)n(Cc3ccc(OC)c(OC)c3)ccc2nc1C
1020	Cc1ccc(CNC(=O)C2(C)CCCN(C(=O)Nc3ccccc3Br)C2)cc1 (stereo not drawn)
1250	COc1cccc(-n2c(=O)c(C(=O)Nc3cccc(F)c3)c(O)c3cccnc32)c1
910	CCOc1nc2c(c(C)nn2-c2cccc(C)c2)c(C)c1CCC(=O)N1CCN(c2ccccn2)CC1
680	COc1ccc(CNC(=O)c2ccc3[nH]c4c(c3c2)CN(C(C)=O)CC4)c(OC)c1
871	COc1ccc(S(=O)(=O)N2CCC(c3nc(C(=O)N4CCCC4)c(C)o3)CC2)cc1
733	O=C(Nc1ccc(NC(=O)N2CCC(C(=O)NCC3CC3)CC2)cc1)NC1CCCCC1
835	COc1ccc(C)cc1NC(=O)N1CCCC1c1cc(C)no1 (stereo not drawn)
566	CC(=O)c1cccc(NC(=O)N2CCN(c3nc4ccccc4n3C)CC2)c1
1020	CCCc1ccc(S(=O)(=O)Nc2ccc3nc(S(=O)(=O)CC)sc3c2)cc1
708	CCc1ccc(Nc2nc(C(=O)NC)nc3ccccc23)cc1
623	NS(=O)(=O)c1ccc(NC(=O)CN2C(=O)c3ccccc3C2=O)cc1
756	Cc1cccc(C)c1NC(=O)C(C)n1cnc2nc3c(cc2c1=O)CCCC3 (stereo not drawn)
801	CCc1ccc(CN2C(=O)c3c(C(=O)OC)ncn3CC2(C)C(=O)NCc2ccccc2)cc1 (stereo not drawn)
732	COc1ccc(CCNC(=O)Cn2c(=O)n(CC3CCCO3)c(=O)c3ccccc32)cc1OC (stereo not drawn)
605	Cc1nn(-c2ccc(N3CCCC3)nn2)c(C)c1CCC(=O)N1CCN(c2ncccn2)CC1
680	Cc1cc(C)cc(NC(=O)N2CCCC(Cn3cnc4cccnc43)C2)c1 (stereo not drawn)
1030	CCc1cccc(NC(=O)c2cc(C)n3nccc3n2)c1
777	CC1CCN(CCNc2ccc(-c3nc(-c4ccc(F)cc4)no3)cn2)CC1
1150	COc1ccc(OC)c(C(C)NC(=O)C2CCCN(c3nccnc3Sc3ccc(C)cc3)C2)c1 (stereo not drawn)
1380	COC(=O)c1ccc2c(=O)n(CCc3ccccc3)c(N3CCC(C)CC3)nc2c1
1090	CCn1cc(C(=O)Nc2ccccc2C)c(=O)c2ccc(C)nc21
1240	CCc1ccc(CNC(=O)C2CCCN(c3nc4c(s3)c(C)nn4-c3ccc(F)cc3)C2)cc1 (stereo not drawn)

RP-LC retention time [s]	SMILES
962	COc1ccc(-c2nc(NC(=O)c3ccc(C#N)cc3)sc2C)cc1
819	CCn1cc2c(n1)c(=O)n(Cc1ccccc1)c(=O)n2CC(=O)NCc1ccccc1
595	Cn1cc(CCN2CCC(C(=O)NCc3ccccc3F)CC2)c2cccnc21
743	Cc1nnc(N2CCCC(C(=O)NCCc3ccco3)C2)c2nn(-c3ccc(Cl)cc3)c(C)c12 (stereo not drawn)
685	COc1cccc(NC(=O)c2[nH]c3cc(C)sc3c2CN2CCOCC2)c1
693	CCOc1ccc(NC(=O)C2CCN(c3cc(N4CCSCC4)ncn3)CC2)cc1
594	O=C(NCc1n[nH]c(=O)c2ccccc12)C1CC(=O)N(c2ccccc2)C1 (stereo not drawn)
677	N#Cc1ccc(C(=O)N2CCCCC2c2nncn2CC2CC2)cc1 (stereo not drawn)
838	Cc1ccc2nc(NC(=O)C3CCN(C(=O)C4Sc5ccccc5NC4=O)CC3)sc2c1 (stereo not drawn)
1070	Cn1cc(-c2nc(C(=O)N3CCN(c4ccccc4Cl)CC3)cs2)c2cccnc21
939	CCCn1cc(C2=CCN(C(=O)NCc3ccc(C)cc3)CC2)c2cccnc21
713	Cc1ccc(NC(=O)Cn2cc(C(=O)N3CCCC3)c(=O)c3ccc(C)nc32)cc1
946	CCc1ccc(NC(=O)Cc2nc(C)c(C(=O)NCc3ccc(F)cc3)s2)cc1
717	Cc1ccc2nc(-c3ccccc3)c(Nc3ccc4c(c3)OCO4)n2c1
691	Cc1cc(C)cc(C(=O)N2CCN(c3cc(=O)n(C)c(=O)n3C)CC2)c1
709	CCOc1ccc(NS(=O)(=O)c2ccc3c(c2)CCCC(=O)N3)cc1
1080	Cc1ccc(NC(=O)N2CCc3nc(-c4ccc(F)cc4)ncc3C2)c(Cl)c1
807	O=C(c1cc(F)ccc1F)N1CCN(c2cc(-c3ccc(F)cc3)[nH]n2)CC1
910	CC1=C(c2ccc(C)cc2)S(=O)(=O)N=C1N1CCCN(C(=O)CC2CCCC2)CC1
697	CN1C(=O)c2cc(C(=O)NCc3ccccc3F)nn2CC1(C)C(=O)NCc1ccccc1 (stereo not drawn)
742	Cc1noc(C)c1S(=O)(=O)NCC1CCN(C(=O)Nc2ccc(F)cc2)CC1
622	Cc1cc(=O)n(CC(=O)Nc2ccccc2)c(N2CCCC2)n1
965	Cc1c(C(=O)NC2CCCCC2)sc2ncn(CC(=O)N3CC(C)CC(C)C3)c(=O)c12 (stereo not drawn)
756	Cn1nc(C(=O)N2CCCC(C(=O)Nc3ccccc3)C2)c2c1CCN(C(=O)c1ccc(F)cc1)C2 (stereo not drawn)
702	COc1ccccc1NC(=O)Nc1cccc(-c2ccc(N3CCOCC3)nn2)c1
612	O=C(CSc1ccc(N2CCCC(C(=O)NC3CC3)C2)nn1)Nc1ccc2c(c1)OCO2 (stereo not drawn)
